molecular target: T1, hmGluR4 (Homo sapiens, UniProt Q14833); test: HEK-293 mGluR4 cells cAMP assay with EC20 L-Glutamate (HTRF); assay type: cell-based; details: not given
T1 construct: host or cells: HEK293T
Experimental: II. Biological Assays HEK-293 mGluR4 Cells cAMP Assay with EC20 L-Glutamate
Using mGluR4 suspension cell format, 10 μM Forskolin (final conc.) used to induce the production of cAMP.
Test the positive allosteric activity of the compounds of the invention at EC20 (2.3 μM for mGluR4 and 4.3 μM for mGluR6) L-Glutamate,
cAMP dymanic2 kit is intended for the direct quantitative determination of cAMP and its principle is based on HTRF technology.
• Cells: HEK293T mGluR4 cells from Multispan, cat# C1191a lot# C1191a-040910 • Culture Media: DMEM+GlutaMAX1+10% dialyzed FBS, 100 mM Sodium Pyruvate, 1 ug/ml puromycin. • Glutamine Starvation Media: DMEM without GlutaMax for plating the cells (glutamine starvation overnight). DMEM high Glucose, without phenol red, glutamine, or sodium pyruvate+10% dialyzed FBS, 100 mM Sodium Pyruvate, 1 ug/ml puromycin, 10 mM Hepes. • Hanks' balanced Salt Solution, HBSS from Invitrogen • Greiner 384 well white low volume high base plate (784075) • cAMP dynamic2 from Cisbio Bioassays • Glutamate: L-Glutamaic acid, monosodium salt, Monohydrate, 98%, from Sigma-Aldrich • Cell Preparation: split cells at 80%-90% confluence. The following day, rinse the cells with DMEM without GlutaMax and change to Glutamine Starvation Media. Incubate overnight. Assay: • Prepare compound plate: Perform compound serial dilution (uses Matrix 4341 plate), using the Bravo liquid handling platform protocol (compound serial dilution) which adds DMSO to columns 1-24 (except cols. 3 and 13). Serial dilute compounds located in columns 3 and 13 at a 1:3 ratio; 10 points (10 ul of 3 mM compound into 20 ul DMSO). Use the Bravo liquid handling platform to transfer 1 ul from the serial dilution plate into Matrix 4314 plate to create stamp plates. Prepare Compound Dilution Buffer: • Dilute 20 mM Forskolin (in DMSO) stock solution in HBSS buffer to make a 20 uM solution (forskolin buffer; 2× solution). To the forskolin buffer, add glutamate to a concentration of 8 uM (compound dilution buffer; 2× EC20 glutamate and forskolin). • Using a multidrop, add 50 ul/well of compound dilution buffer to columns 1-22 of the 2 ul compound stamp plate. Columns 23 and 24 receive forskolin buffer containing 400 uM glutamate (EC100 glutamate; 2× solution). Columns 1 and 2 receive compound dilution buffer containing EC20 glutamate, which is the basal control. • Add a glutamate dose response to row P of compound plate. Prepare the dose response by serial diluting glutamate at a 1:3 ratio in forskolin buffer starting at 2 mM glutamate (2×). Dilute the glutamate 9 times and transfer to compound plate. Prepare Cell Plates: • Harvest cells: Rinse cells with pre-warmed HBSS-10 mM HEPES (without Ca Mg) and dissociate the cells from the flask with versene. Centrifuge the cells, remove the supernatant and suspend in pre-warmed HBSS+10 mM Hepes. Count the cells and centrifuge. Remove the supernatant and suspend the cells in HBSS+Hepes (with Ca Mg) at a density of 400,000 cells/ml. Perform Assay: • Dispense 5 ul from the diluted compound plate into Greiner low volume cell plate using the Bravo liquid handling platform. Using a Multidrop with the small tubing cassette, dispense 5 ul of cells (2000 cells/well) onto the compounds contained in the low volume plates. Incubate the cells at 37° C., 5% CO2 for 30 minutes in the incubator. Assay for cAMP: • Prepare cAMP-d2 and anti-cAMP-Crytate according to the instructions for the two step assay (see Cisbio manual) and add 10 ul of the mixed reagent to each well of the assay plate using the Multidrop. Incubate at room temperature for 60 minutes and read on the Envision plate reader using the mGluR low volume cAMP HTRF 384 well protocol.

T1 sequence (Q14833 33-912): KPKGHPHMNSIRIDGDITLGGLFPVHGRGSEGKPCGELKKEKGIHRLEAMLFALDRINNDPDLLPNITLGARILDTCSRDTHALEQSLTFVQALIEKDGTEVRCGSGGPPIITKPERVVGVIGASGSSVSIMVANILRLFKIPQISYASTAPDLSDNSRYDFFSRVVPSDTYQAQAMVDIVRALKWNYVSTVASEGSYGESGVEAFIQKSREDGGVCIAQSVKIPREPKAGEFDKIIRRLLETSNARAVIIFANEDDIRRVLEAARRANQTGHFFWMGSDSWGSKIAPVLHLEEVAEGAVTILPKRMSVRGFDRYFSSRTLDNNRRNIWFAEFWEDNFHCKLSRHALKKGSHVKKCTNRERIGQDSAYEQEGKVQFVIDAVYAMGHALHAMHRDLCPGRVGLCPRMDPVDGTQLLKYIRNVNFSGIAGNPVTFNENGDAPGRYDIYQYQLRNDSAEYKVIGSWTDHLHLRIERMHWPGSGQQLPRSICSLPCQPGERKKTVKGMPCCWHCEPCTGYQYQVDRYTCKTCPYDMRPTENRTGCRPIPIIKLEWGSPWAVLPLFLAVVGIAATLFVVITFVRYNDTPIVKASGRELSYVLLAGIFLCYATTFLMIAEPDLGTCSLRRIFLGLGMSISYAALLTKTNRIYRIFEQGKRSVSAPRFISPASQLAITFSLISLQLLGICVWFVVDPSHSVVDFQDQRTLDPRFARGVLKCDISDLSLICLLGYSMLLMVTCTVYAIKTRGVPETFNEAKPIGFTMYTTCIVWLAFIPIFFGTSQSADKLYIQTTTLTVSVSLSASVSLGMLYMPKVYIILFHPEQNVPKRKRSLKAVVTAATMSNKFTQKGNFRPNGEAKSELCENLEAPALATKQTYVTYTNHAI

Row | Compound | EC50 [nM]
1 | COc1ccc(N2C(=O)c3ccccc3CC23CCN(Cc2ccc(F)c(F)c2)CC3)cc1 [Compound 126, 1′-(3,4-difluorobenzyl)-2-(4-methoxyphenyl)-2,4-dihydro-1H-spiro[isoquinoline-3,4′-piperidin]-1-one] | 1000 to 10000

same assay, conditions: positive allosteric activity at EC20 L-Glutamate, 10 μM Forskolin, HEK293T mGluR4 cells, cAMP HTRF; read-out: hrmGluR4/HEK293T-hmGluR4 (EC50)

Row | Compound | EC50 [nM]
2 | COc1ccc(N2C(=O)c3ccccc3NC23CCN(Cc2cc(Cl)ccc2Cl)CC3)cc1 [Compound 13, 1-(2,5-Dichlorobenzyl)-3′-(4-methoxyphenyl)-1′H-spiro[piperidine-4,2′-quinazolin]-4′(3′H)-one] | < 1000
3 | COc1ccc(N2C(=O)c3ccc(N4CCCCC4)cc3NC23CCN(Cc2ccc(F)c(F)c2)CC3)cc1 [Compound 83, 1-(3,4-Difluorobenzyl)-3′-(4-methoxyphenyl)-7′-(piperidin-1-yl)-1′H-spiro[piperidine-4,2′-quinazolin]-4′(3′H)-one] | 1000 to 10000
4 | COCCOc1ccc(N2C(=O)c3ccc(F)cc3NC23CN(Cc2ccccc2Cl)C3)cc1 [Compound 124, 1-(2-Chlorobenzyl)-7′-fluoro-3′-(4-(2-methoxyethoxyl)phenyl)-1′H-spiro[azetidine-3,2′-quinazolin]-4′(3′H)-one] | 1000 to 10000
5 | COc1ccc(N2C(=O)c3ccc(Br)cc3NC23CCN(Cc2ccc(F)c(F)c2)CC3)cc1 [Compound 17, 7′-Bromo-1-(3,4-difluorobenzyl)-3′-(4-methoxyphenyl)-1′H-spiro[piperidine-4,2′-quinazolin]-4′(3′H)-one] | < 1000
6 | CCc1ccc2c(c1)NC1(CCN(Cc3ccc(F)c(F)c3)CC1)N(c1ccc(OC)cc1)C2=O [Compound 63, 1-(3,4-Difluorobenzyl)-7′-ethyl-3′-(4-methoxyphenyl)-1′H-spiro[piperidine-4,2′-quinazolin]-4′(3′H)-one] | < 1000
7 | COCCOc1ccc(N2C(=O)c3ccc(F)cc3NC23CN(Cc2ccc(Cl)cc2)C3)cc1 [Compound 123, 1-(4-Chlorobenzyl)-7′-fluoro-3′-(4-(2-methoxyethoxyl)phenyl)-1′H-spiro[azetidine-3,2′-quinazolin]-4′(3′H)-one] | 1000 to 10000
8 | CCOC(=O)c1ccc2c(c1)NC1(CN(C(C)c3ccccc3Cl)C1)N(c1ccc(OC(F)(F)F)cc1)C2=O (stereo not drawn) [Compound 30, Ethyl 1-(1-(2-chlorophenyl)ethyl)-4′-oxo-3′-(4-(trifluoromethoxy)phenyl)-3′,4′-dihydro-1′H-spiro[azetidine-3,2′-quinazoline]-7′-carboxylate] | < 1000
9 | O=C1c2ccc(Br)cc2NC2(CCN(Cc3ccc(F)c(F)c3)CC2)N1c1ccc(OC(F)(F)F)c(Cl)c1 [Compound 102, 7′-Bromo-3′-(3-chloro-4-(trifluoromethoxy)phenyl)-1-(3,4-difluorobenzyl)-1′H-spiro[piperidine-4,2′-quinazolin]-4′(3′H)-one] | 1000 to 10000
10 | Cc1cc2cc(N3C(=O)c4ccc(Br)cc4NC34CCN(Cc3ccc(F)c(F)c3)CC4)ccc2o1 [Compound 2, 7′-Bromo-1-(3,4-difluorobenzyl)-3′-(2-methylbenzofuran-5-yl)-1′H-spiro[piperidine-4,2′-quinazolin]-4′(3′H)-one] | < 1000
11 | O=C1c2ccc(-c3ccco3)cc2NC2(CCN(Cc3ccc(F)c(F)c3)CC2)N1c1ccc(OC(F)(F)F)cc1 [Compound 6, 1-(3,4-Difluorobenzyl)-7′-(furan-2-yl)-3′-(4-(trifluoromethoxy)phenyl)-1′H-spiro[piperidine-4,2′-quinazolin]-4′(3′H)-one] | < 1000
12 | COc1ccc(N2C(=O)c3ccc(-c4nccs4)cc3NC23CCN(Cc2ccc(F)c(F)c2)CC3)cc1 [Compound 14, 1-(3,4-Difluorobenzyl)-3′-(4-methoxyphenyl)-7′-(thiazol-2-yl)-1′H-spiro[piperidine-4,2′-quinazolin]-4′(3′H)-one] | < 1000
13 | O=C1c2ccc(F)cc2NC2(CN(C(c3ccc(F)c(F)c3)C(F)(F)F)C2)N1c1ccc(OC(F)(F)F)cc1 (stereo not drawn) [Compound 78, 1-(1-(3,4-Difluorophenyl)-2,2,2-trifluoroethyl)-7′-fluoro-3′-(4-(trifluoromethoxy)phenyl)-1′H-spiro[azetidine-3,2′-quinazolin]-4′(3′H)-one] | 1000 to 10000
14 | O=C1c2ccc(Br)cc2NC2(CCN(Cc3ccc(F)c(F)c3)CC2)N1c1ccc(OC(F)(F)F)cc1 [Compound 32, 7′-Bromo-1-(3,4-difluorobenzyl)-3′-(4-(trifluoromethoxy)phenyl)-1′H-spiro[piperidine-4,2′-quinazolin]-4′(3′H)-one] | < 1000
15 | CCOC(=O)c1ccc2c(c1)NC1(CCN(Cc3ccc(F)c(F)c3)CC1)N(c1ccc(OC)cc1)C2=O [Compound 1, Ethyl 1-(3,4-difluorobenzyl)-3′-(4-methoxyphenyl)-4′-oxo-3′,4′-dihydro-1′H-spiro[piperidine-4,2′-quinazoline]-7′-carboxylate] | < 1000
16 | O=C1c2ccc(Br)cc2NC2(CCN(C(c3ccc(F)c(F)c3)C(F)(F)F)CC2)N1c1ccc(OC(F)(F)F)cc1 (stereo not drawn) [Compound 107, 7′-Bromo-1-(1-(3,4-difluorophenyl)-2,2,2-trifluoroethyl)-3′-(4-(trifluoromethoxy)phenyl)-1′H-spiro[piperidine-4,2′-quinazolin]-4′(3′H)-one] | < 1000
17 | CC(c1ccc(F)cc1)N1CC2(C1)Nc1cc(F)ccc1C(=O)N2c1ccc(OC(F)(F)F)cc1 (stereo not drawn) [Compound 82, 7′-Fluoro-1-(1-(4-fluorophenyl)ethyl)-3′-(4-(trifluoromethoxy)phenyl)-1′H-spiro[azetidine-3,2′-quinazolin]-4′(3′H)-one] | 1000 to 10000
18 | O=C1c2ccc(C(F)(F)F)cc2NC2(CCN(Cc3ccc(F)c(F)c3)CC2)N1c1ccc(OC(F)(F)F)cc1 [Compound 16, 1-(3,4-Difluorobenzyl)-3′-(4-(trifluoromethoxy)phenyl)-7′-(trifluoromethyl)-1′H-spiro[piperidine-4,2′-quinazolin]-4′(3′H)-one] | < 1000
19 | COc1ccc(N2C(=O)c3ccccc3NC23CCN(Cc2cccc(OC(F)(F)F)c2)CC3)cc1 [Compound 55, 3′-(4-Methoxyphenyl)-1-(3-(trifluoromethoxy)benzyl)-1′H-spiro[piperidine-4,2′-quinazolin]-4′(3′H)-one] | < 1000
20 | O=C1c2ccc(F)cc2NC2(CN(C(c3cccc(F)c3)C(F)(F)F)C2)N1c1ccc(OC(F)(F)F)cc1 (stereo not drawn) [Compound 53, 7′-Fluoro-1-(2,2,2-trifluoro-1-(3-fluorophenyl)ethyl)-3′-(4-(trifluoromethoxy)phenyl)-1′H-spiro[azetidine-3,2′-quinazolin]-4′(3′H)-one] | < 1000
21 | O=C1c2ccc(Br)cc2NC2(CCN(Cc3ccc(F)c(F)c3)CC2)N1c1ccc(C(F)(F)F)cc1 [Compound 52, 7′-Bromo-1-(3,4-difluorobenzyl)-3′-(4-(trifluoromethyl)phenyl)-1′H-spiro[piperidine-4,2′-quinazolin]-4′(3′H)-one] | < 1000
22 | COc1ccc(N2C(=O)c3ccc(Br)cc3OC23CCN(Cc2ccc(F)c(F)c2)CC3)cc1 [Compound 108, 7-Bromo-1′-(3,4-difluorobenzyl)-3-(4-methoxyphenyl)spiro[benzo[e][1,3]oxazine-2,4′-piperidin]-4(3H)-one] | 1000 to 10000
23 | COCCOc1ccc(N2C(=O)c3ccc(Br)cc3NC23CCN(Cc2ccc(F)c(F)c2)CC3)cc1 [Compound 37, 7′-bromo-1-(3,4-difluorobenzyl)-3′-(4-(2-methoxyethoxyl)phenyl)-1′H-spiro[piperidine-4,2′-quinazolin]-4′(3′H)-one] | < 1000
24 | COCCOc1ccc(N2C(=O)c3ccc(F)cc3NC23CCN(Cc2ccc(F)c(F)c2)CC3)cc1 [Compound 106, 1-(3,4-difluorobenzyl)-7′-fluoro-3′-(4-(2-methoxyethoxyl)phenyl)-1′H-spiro[piperidine-4,2′-quinazolin]-4′(3′H)-one] | 1000 to 10000

Reference: patent US9708321B2, “Spiro-quinazolinone derivatives and their use as positive allosteric modulators of mGluR4” (Merck Patent GmbH, priority 2013, dated 2017)
